Source: PubChem BioAssay (NCI)
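Test compounds were applied to cells in 96-well plates for 48 hours at 5 doses. The concentration for 50% growth inhibition is given as GI50. TGI marks complete inhibition of growth.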

Key:
Experiment in all cases: NCI-60 cell line screen, 48 h
[1] = tested on: 786-0 renal
[2] = tested on: A498 renal
[3] = tested on: A549 NSCLC
[4] = tested on: ACHN renal
[5] = tested on: BT-549 breast
[6] = tested on: CAKI-1 renal
[7] = tested on: CCRF-CEM leukemia
[8] = tested on: COLO 205 colon
[9] = tested on: DU-145 prostate
[10] = tested on: EKVX NSCLC
[11] = tested on: HCC-2998 colon
[12] = tested on: HCT-116 colon
[13] = tested on: HCT-15 colon
[14] = tested on: HL-60(TB) leukemia
[15] = tested on: HOP-92 NSCLC
[16] = tested on: HS 578T breast
[17] = tested on: HT29 colon
[18] = tested on: IGROV1 ovarian
[19] = tested on: K-562 leukemia
[20] = tested on: KM12 colon
[21] = tested on: LOX IMVI melanoma
[22] = tested on: M14 melanoma
[23] = tested on: MCF7 breast
[24] = tested on: MDA-MB-231 breast
[25] = tested on: MDA-MB-435
[26] = tested on: MOLT-4 leukemia
[27] = tested on: NCI-H226 lung
[28] = tested on: NCI-H23 lung
[29] = tested on: NCI-H460 lung
[30] = tested on: NCI-H522 lung
[31] = tested on: OVCAR-3 ovarian
[32] = tested on: OVCAR-4 ovarian
[33] = tested on: OVCAR-5 ovarian
[34] = tested on: PC-3 prostate
[35] = tested on: RPMI-8226 leukemia
[36] = tested on: RXF 393 renal
[37] = tested on: SF-268 CNS
[38] = tested on: SF-295 CNS
[39] = tested on: SF-539 CNS
[40] = tested on: SK-MEL-2 melanoma
[41] = tested on: SK-MEL-28 melanoma
[42] = tested on: SK-MEL-5 melanoma
[43] = tested on: SK-OV-3 ovarian
[44] = tested on: SN12C renal
[45] = tested on: SNB-19 CNS
[46] = tested on: SNB-75 CNS
[47] = tested on: SR leukemia
[48] = tested on: SW-620 colon
[49] = tested on: TK-10 renal
[50] = tested on: U251 CNS
[51] = tested on: UACC-257 melanoma
[52] = tested on: UACC-62 melanoma
[53] = tested on: UO-31 renal

Compound: CCN1CCN(Cc2ccc(NC(=O)Nc3nc(-c4cc(OC)c(OC)c(OC)c4)cs3)cc2C(F)(F)F)CC1
- GI50 [1]: 1660 nM
- TGI [1]: 3150 nM
- GI50 [2]: 1960 nM
- TGI [2]: 5480 nM
- GI50 [3]: 1960 nM
- TGI [3]: 4450 nM
- GI50 [4]: 1910 nM
- TGI [4]: 4100 nM
- GI50 [5]: 1910 nM
- TGI [5]: 4580 nM
- GI50 [6]: 1910 nM
- TGI [6]: 4900 nM
- GI50 [7]: 1870 nM
- TGI [7]: 6070 nM
- GI50 [8]: 1580 nM
- TGI [8]: 3200 nM
- GI50 [9]: 2070 nM
- TGI [9]: 4920 nM
- GI50 [10]: 1810 nM
- TGI [10]: 4250 nM
- GI50 [11]: 1800 nM
- TGI [11]: 3400 nM
- GI50 [12]: 1480 nM
- TGI [12]: 2840 nM
- GI50 [13]: 1410 nM
- TGI [13]: 3550 nM
- GI50 [14]: 1940 nM
- TGI [14]: 4250 nM
- GI50 [15]: 1230 nM
- TGI [15]: 4230 nM
- GI50 [16]: 1650 nM
- TGI [16]: 5040 nM
- GI50 [17]: 390 nM
- TGI [17]: 1480 nM
- GI50 [18]: 1930 nM
- TGI [18]: 4590 nM
- GI50 [19]: 420 nM
- TGI [19]: 1920 nM
- GI50 [20]: 1650 nM
- TGI [20]: 3350 nM
- GI50 [21]: 2180 nM
- TGI [21]: 7140 nM
- GI50 [22]: 1580 nM
- TGI [22]: 3160 nM
- GI50 [23]: 1440 nM
- TGI [23]: 3020 nM
- GI50 [24]: 1600 nM
- TGI [24]: 3460 nM
- GI50 [25]: 1500 nM
- TGI [25]: 2820 nM
- GI50 [26]: 1290 nM
- TGI [26]: 3690 nM
- GI50 [27]: 1680 nM
- TGI [27]: 3820 nM
- GI50 [28]: 1690 nM
- TGI [28]: 3590 nM
- GI50 [29]: 1650 nM
- TGI [29]: 3200 nM
- GI50 [30]: 1650 nM
- TGI [30]: 3130 nM
- GI50 [31]: 2280 nM
- TGI [31]: 6890 nM
- GI50 [32]: 1470 nM
- TGI [32]: 5130 nM
- GI50 [33]: 1620 nM
- TGI [33]: 3440 nM
- GI50 [34]: 1640 nM
- TGI [34]: 6990 nM
- GI50 [35]: 1630 nM
- TGI [35]: 4240 nM
- GI50 [36]: 1410 nM
- TGI [36]: 2840 nM
- GI50 [37]: 1870 nM
- TGI [37]: 5760 nM
- GI50 [38]: 1550 nM
- TGI [38]: 3130 nM
- GI50 [39]: 1690 nM
- TGI [39]: 3120 nM
- GI50 [40]: 1900 nM
- TGI [40]: 3610 nM
- GI50 [41]: 1650 nM
- TGI [41]: 3000 nM
- GI50 [42]: 1670 nM
- TGI [42]: 3040 nM
- GI50 [43]: 1710 nM
- TGI [43]: 3850 nM
- GI50 [44]: 1450 nM
- TGI [44]: 3190 nM
- GI50 [45]: 1750 nM
- TGI [45]: 3430 nM
- GI50 [46]: 1190 nM
- TGI [46]: 3910 nM
- GI50 [47]: 1200 nM
- TGI [47]: 3080 nM
- GI50 [48]: 1620 nM
- TGI [48]: 3310 nM
- GI50 [49]: 1950 nM
- TGI [49]: 4250 nM
- GI50 [50]: 1370 nM
- TGI [50]: 2810 nM
- GI50 [51]: 1690 nM
- TGI [51]: 3080 nM
- GI50 [52]: 1680 nM
- TGI [52]: 3180 nM
- GI50 [53]: 1360 nM
- TGI [53]: 3780 nM
